According to article PMC12069901 (Acta Pharmaceutica Sinica. B, 2025):

Assays:
PDGF-BB-induced VSMCs [1] = assay: MTT assay, PDGF-BB-induced VSMC proliferation; assay type: cell-based, rat; conditions: 5 μmol/L for 2 h, then PDGF-BB 25 ng/mL for 24 h
STAT3 [2] = assay: STAT3 dimerization assay and immunoprecipitation; assay type: cell-based, rat; conditions: PDGF-BB-induced VSMCs; CAB 3–5 μmol/L, AG490 20 μmol/L, stattic 1 μmol/L
CIAPIN1 [3] = assay: CIAPIN1 nuclear accumulation; assay type: cell-based, rat; conditions: PDGF-BB-induced VSMCs, 24 h
CIAPIN1 [4] = assay: Western blot, CIAPIN1 expression in PDGF-BB-induced VSMCs; assay type: cell-based, rat; conditions: 24 h; CAB 1–5 μmol/L, stattic 1 μmol/L
SPP1 = assay: Western blot, SPP1 expression in PDGF-BB-induced VSMCs; assay type: cell-based, rat; conditions: 24 h; CAB 1–5 μmol/L, stattic 1 μmol/L
JAK2 = assay: Western blot, JAK2 expression and phosphorylation in PDGF-BB-induced VSMCs; assay type: cell-based, rat; conditions: for PDGF-BB-induced JAK2 expression: 24 h; for PDGF-BB-induced JAK2 expression / JAK2 phosphorylation: CAB 1–5 μmol/L, stattic 1 μmol/L; for JAK2 phosphorylation: PDGF-BB 24 h
KLF4 = assay: Western blot, KLF4 expression in PDGF-BB-induced VSMCs; assay type: cell-based, rat; conditions: 24 h; CAB 1–5 μmol/L, stattic 1 μmol/L
STAT3 [5] = assay: Western blot, STAT3 phosphorylation in PDGF-BB-induced VSMCs; assay type: cell-based, rat; conditions: for STAT3 phosphorylation: PDGF-BB 24 h, CAB 1–5 μmol/L, stattic 1 μmol/L
CDKN1B = assay: Western blot, CDKN1B expression in PDGF-BB-induced VSMCs; assay type: cell-based, rat; conditions: 24 h, CAB 1–5 μmol/L, stattic 1 μmol/L
[6] = molecular target: STAT3 protein (amino acids 127–688) (Homo sapiens, UniProt P40763); assay: Surface plasmon resonance; assay type: binding; conditions: immobilized STAT3 (127–688 aa), 25 °C
VSMCs [7] = assay: MTT cytotoxicity assay in VSMCs; assay type: cell-based, rat; conditions: 5 μmol/L, 26 h
PDGFR-β = assay: Western blot, PDGFR-β phosphorylation in PDGF-BB-induced VSMCs; assay type: cell-based, rat; conditions: 1–5 μmol/L, PDGF-BB 15 min
SRC = assay: Western blot, SRC phosphorylation in PDGF-BB-induced VSMCs; assay type: cell-based, rat; conditions: 5 μmol/L, PDGF-BB 15 min
VSMCs [8] = assay: Annexin V/PI apoptosis detection assay; assay type: cell-based, rat; conditions: 5 μmol/L, 26 h, compared with control
PDGF-BB-induced VSMCs [9] = assay: Cell cycle progression analysis; assay type: cell-based, rat; conditions: CAB-treated versus PDGF-BB-induced VSMCs, 24 h
[10] = assay type: in vivo, Sprague–Dawley rats
cyclin E1 = assay: Western blot, cyclin E1 expression; assay type: cell-based, rat; conditions: 1–5 μmol/L, 24 h
AKT = assay: Western blot, AKT phosphorylation in PDGF-BB-induced VSMCs; assay type: cell-based, rat; conditions: 1–5 μmol/L, PDGF-BB 15 min
PCNA = assay: Western blot, PCNA expression; assay type: cell-based, rat; conditions: 1–5 μmol/L, 24 h
phospho-pRb (p-pRb) = assay: Western blot, phospho-pRb; assay type: cell-based, rat; conditions: 1–5 μmol/L, 24 h
rat carotid arteries = assay: Balloon injury-induced neointima formation in rat carotid artery; assay type: in vivo, Sprague–Dawley rats; conditions: 20 mg/kg orally daily, 14 days
CDK4 = assay: Western blot, CDK4 expression; assay type: cell-based, rat; conditions: 1–5 μmol/L, 24 h
CDK2 = assay: Western blot, CDK2 expression; assay type: cell-based, rat; conditions: 1–5 μmol/L, 24 h
p38 = assay: Western blot, p38 phosphorylation in PDGF-BB-induced VSMCs; assay type: cell-based, rat; conditions: 1–5 μmol/L, PDGF-BB 15 min
STAT3 [11] = assay: STAT3 dual-luciferase reporter assay; assay type: cell-based, rat; conditions: PDGF-BB 6 h
rat Ciapin1 promoter = assay: Ciapin1 promoter luciferase assay; assay type: cell-based; conditions: PDGF-BB 6 h
STAT3 [12] = assay: STAT3 nuclear translocation; assay type: cell-based, rat; conditions: PDGF-BB 15 min
ERK1/2 = assay: Western blot, ERK1/2 phosphorylation in PDGF-BB-induced VSMCs; assay type: cell-based, rat; conditions: 1–5 μmol/L, PDGF-BB 15 min
MMP9 [13] = assay: Western blot, MMP9 expression; assay type: cell-based, rat; conditions: 1–5 μmol/L, 24 h
cyclin D1 = assay: Western blot, cyclin D1 expression; assay type: cell-based, rat; conditions: 1–5 μmol/L, 24 h
[14] = test system: Ciapin1 promoter (STAT3-RE1); assay: ChIP-PCR assay, STAT3 binding to Ciapin1 promoter; assay type: cell-based, rat; conditions: CAB 2 h, then PDGF-BB 6 h
MMP9 [15] = assay: Gelatin zymography, MMP9 activity; assay type: cell-based, rat; conditions: 1–5 μmol/L, PDGF-BB 24 h
His-STAT3 = assay: His-tag pull-down assay with CAB-conjugated Sepharose 6B; assay type: binding, Mus musculus
[16] = rat serum, after 2 weeks of CAB administration

Sequence of STAT3 protein (amino acids 127–688) (P40763 127-688): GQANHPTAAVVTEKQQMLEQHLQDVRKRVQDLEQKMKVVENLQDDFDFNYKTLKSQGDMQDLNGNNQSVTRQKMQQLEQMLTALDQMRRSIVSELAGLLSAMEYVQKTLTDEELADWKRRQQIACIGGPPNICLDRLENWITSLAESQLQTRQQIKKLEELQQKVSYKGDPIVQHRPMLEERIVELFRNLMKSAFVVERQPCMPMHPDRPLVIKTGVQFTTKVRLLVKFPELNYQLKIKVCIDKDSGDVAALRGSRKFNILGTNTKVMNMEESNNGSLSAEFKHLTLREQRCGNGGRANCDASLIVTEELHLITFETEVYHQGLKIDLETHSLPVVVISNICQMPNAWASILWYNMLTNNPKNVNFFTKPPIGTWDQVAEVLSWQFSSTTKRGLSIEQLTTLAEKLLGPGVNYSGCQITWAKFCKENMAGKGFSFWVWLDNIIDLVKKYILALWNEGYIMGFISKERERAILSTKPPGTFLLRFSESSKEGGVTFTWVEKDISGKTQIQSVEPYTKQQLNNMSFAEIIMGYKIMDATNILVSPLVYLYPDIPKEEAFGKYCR

Structure (SMILES): CC(=O)Nc1ccc(C(=O)Oc2ccc3[nH]c4ccccc4c3c2)cc1 [compound 4, 9H-Carbazol-3-yl 4-acetamidobenzoate]
- PDGF-BB-stimulated VSMC proliferation (PDGF-BB-induced VSMCs [1]): significantly inhibited

Structure (SMILES): N#C/C(=C/c1ccc(O)c(O)c1)C(=O)NCc1ccccc1 [AG490]
- STAT3 dimerization (STAT3 [2]): inhibitory effect

Structure (SMILES): O=[N+]([O-])c1ccc2c(c1)S(=O)(=O)C=C2 [Stattic, reference compound]
- CIAPIN1 nuclear accumulation (CIAPIN1 [3]): significantly reduced
- PDGF-BB-induced CIAPIN1 expression (CIAPIN1 [4]): significantly inhibited
- PDGF-BB-induced expression of SPP1 (SPP1): inhibited
- PDGF-BB-induced JAK2 expression (JAK2): significantly inhibited
- JAK2 phosphorylation (JAK2): significantly inhibited
- PDGF-BB-induced expression of KLF4 (KLF4): inhibited
- STAT3 phosphorylation (STAT3 [5]): significantly inhibited
- CDKN1B expression (CDKN1B): increased
- STAT3 dimerization (STAT3 [2]): inhibitory effect
- Ka, association rate constant [6]: 1002 mol⁻¹ L⁻¹ s⁻¹
- Kd, dissociation rate constant [6]: 0.009083 s⁻¹
- Kd ([6]; read-out: KD, equilibrium constant): 9.07 µM

Structure (SMILES): N=C(N)Nc1ccc(C(=O)Oc2ccc3[nH]c4ccccc4c3c2)cc1 [compound 3, 9H-Carbazol-3-yl 4-guanidinobenzoate]
- PDGF-BB-stimulated VSMC proliferation (PDGF-BB-induced VSMCs [1]): significantly inhibited

Structure (SMILES): O=C(Oc1ccc2[nH]c3ccccc3c2c1)c1ccc(O)cc1 [compound 2, 9H-Carbazol-3-yl 4-hydroxybenzoate]
- PDGF-BB-stimulated VSMC proliferation (PDGF-BB-induced VSMCs [1]): significantly inhibited

Structure (SMILES): Nc1ccc(C(=O)Oc2ccc3[nH]c4ccccc4c3c2)cc1 [CAB, 9H-Carbazol-3-yl 4-aminobenzoate]
- cytotoxic effects in VSMCs (VSMCs [7]): did not induce cytotoxic effects
- PDGF-BB-stimulated PDGFR-β phosphorylation (PDGFR-β): did not affect
- PDGF-BB-induced SRC phosphorylation (SRC): did not inhibit
- cell apoptosis induction (VSMCs [8]): no signs of cell apoptosis induction
- CIAPIN1 nuclear accumulation (CIAPIN1 [3]): significantly reduced
- G0/G1 phase proportion (PDGF-BB-induced VSMCs [9]): increase
- glutamic pyruvic transaminase (GPT/ALT, soluble) level [10, 16]: no alterations
- glutamic-oxaloacetic transaminase 1 (GOT1/AST, soluble) level [10, 16]: no alterations
- histological morphology of liver, heart, lung, and kidney ([10]; rat, 20 mg/kg orally daily): no significant changes
- side effects, such as diarrhea and weight loss ([10]; rat, 20 mg/kg orally daily): did not show any side effects
- cell death induction (TUNEL staining) in carotid arteries ([10]; rat, 14 days post-injury, compared with control group): no signs of cell death induction
- PDGF-BB-induced CIAPIN1 expression (CIAPIN1 [4]): significantly inhibited
- PDGF-BB-induced cyclin E1 expression (cyclin E1): significantly inhibited
- PDGF-BB-stimulated AKT phosphorylation (AKT): did not affect
- PDGF-BB-induced PCNA expression (PCNA): significantly inhibited
- PDGF-BB-induced phospho-pRb (p-pRb) (phospho-pRb (p-pRb)): significantly inhibited
- PDGF-BB-induced expression of SPP1 (SPP1): decreased
- CIAPIN1 expression in the neointima region (rat carotid arteries): remarkably decreased
- arterial intimal areas (rat carotid arteries; BI + CAB vs BI): lower
- circumference of the external elastic lamina (EEL) (rat carotid arteries; BI + CAB vs BI): no differences
- media area (rat carotid arteries; BI + CAB vs BI): no differences
- balloon injury-induced neointima formation (rat carotid arteries; vs BI group): significantly attenuated
- expression of PCNA in carotid arteries (rat carotid arteries; vs BI group): significantly decreased
- PDGF-BB-induced CDK4 expression (CDK4): significantly inhibited
- PDGF-BB-induced JAK2 phosphorylation (JAK2; 5 μmol/L, PDGF-BB 15 min): did not inhibit
- PDGF-BB-induced JAK2 expression (JAK2): significantly inhibited
- JAK2 phosphorylation (JAK2): attenuated
- PDGF-BB-induced CDK2 expression (CDK2): significantly inhibited
- PDGF-BB-induced expression of KLF4 (KLF4): decreased
- PDGF-BB-stimulated p38 phosphorylation (p38): did not affect
- PDGF-BB-induced STAT3 DNA binding activity (luciferase reporter) (STAT3 [11]): inhibited
- PDGF-BB-induced STAT3 tyrosine (Tyr) 705 phosphorylation (STAT3 [5]; 1–5 μmol/L, PDGF-BB 15 min): significantly inhibited
- STAT3 serine (Ser) 727 phosphorylation (STAT3 [5]; 1–5 μmol/L, PDGF-BB 15 min): without affecting
- STAT3 phosphorylation (STAT3 [5]): attenuated
- PDGF-BB-induced CIAPIN1 luciferase expression (rat Ciapin1 promoter): inhibited
- CDKN1B expression (CDKN1B): dose-dependently restored
- PDGF-BB-increased STAT3 phosphorylation and nuclear translocation (STAT3 [12]): blocked
- PDGF-BB-stimulated ERK1/2 phosphorylation (ERK1/2): did not affect
- PDGF-BB-induced MMP9 expression (MMP9 [13]): significantly inhibited
- PDGF-BB-induced cyclin D1 expression (cyclin D1): significantly inhibited
- binding of STAT3 to the Ciapin1 promoter region (protein/DNA binding) [14]: inhibited
- MMP9 proteolytic activity (MMP9 [15]): significantly inhibited
- binding to STAT3 with mutated SH2 residues (His-STAT3; Ile59, Arg609, and Glu612 mutated, compared to full-length): did not bind to STAT3 strongly
- pull-down of full-length STAT3 by CAB-conjugated beads (His-STAT3; full-length His-STAT3): successfully pulled down
- pull-down of STAT3 fragments lacking SH2 by CAB-conjugated beads (His-STAT3; ΔSH2): did not pull down
- STAT3 dimerization (STAT3 [2]): inhibited
